This passage reports IC50 results from patent US9346802B2, “CARM1 inhibitors and uses thereof” (Epizyme, Inc., priority 2013, dated 2016).

In the assay the target is T1, Human CARM1 (PRMT4) (Homo sapiens, UniProt Q86X55).
T1 construct: Flag-CARM1-His was eluted with 200 ug/ml FLAG peptide in buffer A; made in house; host or cells: HEK 293F cells infected with recombinant baculovirus (pFastBacMam)
T1 sequence (Q86X55 1-585 isoform Q86X55-1): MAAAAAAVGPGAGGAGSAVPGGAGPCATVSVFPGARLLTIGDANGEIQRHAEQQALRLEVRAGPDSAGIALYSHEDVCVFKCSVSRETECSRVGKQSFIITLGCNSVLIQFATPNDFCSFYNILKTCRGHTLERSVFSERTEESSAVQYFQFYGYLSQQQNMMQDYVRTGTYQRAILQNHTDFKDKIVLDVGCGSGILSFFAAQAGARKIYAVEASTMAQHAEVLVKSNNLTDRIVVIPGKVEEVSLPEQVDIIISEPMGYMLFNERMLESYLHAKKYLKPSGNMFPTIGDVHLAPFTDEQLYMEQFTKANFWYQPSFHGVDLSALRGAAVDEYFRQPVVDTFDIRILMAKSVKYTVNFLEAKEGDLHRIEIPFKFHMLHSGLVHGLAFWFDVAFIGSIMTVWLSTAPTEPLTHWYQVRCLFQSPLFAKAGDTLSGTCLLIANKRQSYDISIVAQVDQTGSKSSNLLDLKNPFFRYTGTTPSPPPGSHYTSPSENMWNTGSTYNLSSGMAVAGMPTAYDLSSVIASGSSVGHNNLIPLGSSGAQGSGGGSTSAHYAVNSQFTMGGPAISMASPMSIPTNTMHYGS
The experiment in a line: CARM1 enzyme assay on peptide substrate (3H-SAM Flashplate). Format: biochemical. The following applies: CARM1 0.25 nM, 3H-SAM 30 nM, peptide 250 nM, 30 min preincubation; read-out: Biochem IC50. The text has this: Peptide representative of human histone H3 residues 16-30 was synthesized with an N-terminal linker-affinity tag motif and a C-terminal amide cap by 21st Century Biochemicals. The peptide was purified by high-performance liquid chromatography (HPLC) to greater than 95% purity and confirmed by liquid chromatography mass spectrometry (LC-MS). The sequence was Biot-Ahx-[…]-amide and contained a monomethylated arginine at position 26 (SEQ ID NO.:1).
Human CARM1 (PRMT4) (NM_199141.1) transcript clone was amplified from an HEK 293 cDNA library, incorporating a flanking 5′ sequence encoding a FLAG tag ([…]) (SEQ ID NO.:2) fused directly to Ala 2 of CARM1 and 3′ sequence encoding a hexa His sequence ([…]) (SEQ ID NO.:3) fused directly to Ser 608. The gene sequence encoding isoform1 containing a deletion of amino acids 539-561 was amplified subsequently and subcloned into pFastBacMam (Viva Biotech).
Recombinant baculovirus were generated according to Bac-to-Bac kit instructions (Life Technologies). Protein over-expression was accomplished by infecting exponentially growing HEK 293F cell culture at 1.3×10^6 cell/ml with virus (MOI=10) in the presence of 8 mM sodium butyrate. Infections were carried out at 37° C. for 48 hours, harvested by centrifugation, and stored at −80° C. for purification.
Expressed full-length human Flag- and His-tagged CARM1 protein was purified from cell paste by anti-flag M2 affinity chromatography with resin equilibrated with buffer containing 20 mM Tris, 150 mM NaCl, 5% glycerol, pH 7.8. Column was washed with 500 mM NaCl in buffer A and Flag-CARM1-His was eluted with 200 ug/ml FLAG peptide in buffer A. Pooled fractions were dialyzed in 20 mM Tris, 150 mM NaCl, 5% glycerol and 1 mM DTT, pH 7.8. The purity of recovered protein was 94.
The assays were all performed in a buffer consisting of 20 mM Bicine (pH=7.6), 1 mM TCEP, 0.005% BSG, and 0.002% Tween 20, prepared on the day of use. Compounds in 100% DMSO (1 ul) were spotted into a polypropylene 384-well V-bottom plates (Greiner) using a Platemate Plus outfitted with a 384-channel head (Thermo Scientific). DMSO (1 ul) was added to Columns 11, 12, 23, 24, rows A-H for the maximum signal control and 1 ul of SAH, a known product and inhibitor of CARM1, was added to columns 11, 12, 23, 24, rows I-P for the minimum signal control. A cocktail (40 ul) containing the CARM1 enzyme was added by Multidrop Combi (Thermo-Fisher). The compounds were allowed to incubate with CARM1 for 30 min at room temperature, then a cocktail (10 ul) containing ^3H-SAM and peptide was added to initiate the reaction (final volume=51 ul). The final concentrations of the components were as follows: CARM1 was 0.25 nM, ^3H-SAM was 30 nM, peptide was 250 nM, SAH in the minimum signal control wells was 1 mM, and the DMSO concentration was 2%. The assays were stopped by the addition of non-radiolabeled SAM (10 ul) to a final concentration of 300 uM, which dilutes the ^3H-SAM to a level where its incorporation into the peptide substrate is no longer detectable. 50 ul of the reaction in the 384-well polypropylene plate was then transferred to a 384-well Flashplate and the biotinylated peptides were allowed to bind to the streptavidin surface for at least 1 hour before being washed once with 0.1% Tween20 in a Biotek ELx405 plate washer. The plates were then read in a PerkinElmer TopCount plate reader to measure the quantity of ^3H-labeled peptide bound to the Flashplate surface, measured as disintegrations per minute (dpm) or alternatively, referred to as counts per minute (cpm).
[formula] where dpm=disintegrations per minute, cmpd=signal in assay well, and min and max are the respective minimum and maximum signal controls.
[formula] where top and bottom are the normally allowed to float, but may be fixed at 100 or 0 respectively in a 3-parameter fit. The Hill Coefficient normally allowed to float but may also be fixed at 1 in a 3-parameter fit. […]

For `CNCC(O)COc1cccc(-c2cc(N(C)C3CCOCC3)nc(C)n2)c1` (centres unmarked) [Compound 1-2], the IC50 (as a rule, the point on the concentration scale where inhibition reaches its midpoint) was 100 to 1000 nM.

Take `CNCC(O)COc1cccc(-c2cc(NC3CCOCC3)nc(N(C)C)n2)c1` (centres unmarked) [Compound 3-2]: the IC50 was 100 to 1000 nM. Take `C#Cc1cc(NC2CCOCC2)nc(-c2cccc(OCC(O)CNC)c2)n1` (centres unmarked) [Compound 5-1]: the IC50 fell in the range of 3000 to 10000 nM. The same measure for `CNCC(O)COc1cccc(-c2nc(C)cc(N(C)C3CCOCC3)n2)c1` (centres unmarked) [Compound 6-1]: 100 to 1000 nM; for `C#Cc1cc(N(C)C2CCOCC2)nc(-c2cccc(OCC(O)CNC)c2)n1` (centres unmarked) [Compound 7-1]: 100 to 1000 nM; for `CNCC(O)COc1cccc(-c2cc(NC3CCOCC3)nc(NC(C)C)n2)c1` (centres unmarked) [Compound 9-2]: 100 to 1000 nM. The same measure for `CNCC(O)COc1cccc(-c2cc(N[C@H]3CCOC3)nc(C3CCOCC3)n2)c1` (some centres unmarked) [Compound 10-2]: 100 to 1000 nM; for `CNCC(O)COc1cccc(-c2cc(NC3CCOCC3)nc(-c3ccncc3)n2)c1` (centres unmarked) [Compound 11-2]: 100 to 1000 nM; for `CNCC(O)COc1cccc(-c2nc(NC3CCOCC3)cc(NC3CC3)n2)c1` (centres unmarked) [Compound 12-1]: 100 to 1000 nM.

Consider `CNCC(O)COc1cccc(-c2cc(NC3CCOCC3)nc(N3CCOCC3)n2)c1` (centres unmarked) [Compound 12-2], for which the IC50 lay in the range of 100 to 1000 nM. The same measure for `CNCC(O)COc1cccc(-c2nc(N3CCOCC3)nc(N[C@H]3CCOC3)c2C)c1` (some centres unmarked) [Compound 13-2]: 100 to 1000 nM; for `CNCC(O)COc1cccc(-c2nc(NC(C)C)cc(NC3CCOCC3)n2)c1` (centres unmarked) [Compound 16-1]: 100 to 1000 nM. The figure for `C=C(Cl)c1cc(NC2CCOCC2)nc(-c2cccc(OCC(O)CNC)c2)n1` (centres unmarked) [Compound 17-1] is 1000 to 3000 nM. As for `CNCC(O)COc1cccc(-c2nc(C(C)C)c(C)c(N(C)C3CCOCC3)n2)c1` (centres unmarked) [Compound 21-1], the IC50 fell in the range of 100 to 1000 nM. The figure for `CNCC(O)COc1cccc(-c2nc(NCCOC)cc(-c3cccc(C#N)c3)n2)c1` (centres unmarked) [Compound 23-1] is 100 to 1000 nM; for `CNCC(O)COc1cccc(-c2nc(NC3CCOCC3)cc(N3CCOCC3)n2)c1` (centres unmarked) [Compound 27-1] it is 100 to 1000 nM.

Turning to `CNCC(O)COc1cc(Cl)cc(-c2nc(C3CC3)cc(N(C)C3CCOCC3)n2)c1` (centres unmarked) [Compound 28-1], the IC50 is 100 to 1000 nM. As to `CNCC(O)COc1cccc(-c2nc(-c3ccnc(OC)c3)cc(N(C)CCC#N)n2)c1` (centres unmarked) [Compound 30-1], the IC50 lay in the range of 100 to 1000 nM.

Turning to `CNCC(O)COc1cc(Cl)cc(-c2nc(C(C)C)cc(N(C)C3CCOCC3)n2)c1` (centres unmarked) [Compound 31-1], the IC50 fell in the range of 100 to 1000 nM. As for `CNCC(O)COc1cccc(-c2nc(-c3cc4ccccc4o3)cc(N(C)CCC#N)n2)c1` (centres unmarked) [Compound 35-1], the IC50 is 100 to 1000 nM.

For `CNCC(O)COc1cccc(-c2nc(NC3CCOCC3)cc(-c3cccc(C#N)c3)n2)c1` (centres unmarked) [Compound 38-1], the IC50 lay within 100 to 1000 nM. The figure for `CNCC(O)COc1cccc(-c2nc(NCCOC)cc(-c3cccc4ncccc34)n2)c1` (centres unmarked) [Compound 39-1] is 100 to 1000 nM; for `CNCC(O)COc1cccc(-c2nc(-c3ccnc(C)c3)cc(N(C)C3CCOCC3)n2)c1` (centres unmarked) [Compound 40-1] it is 100 to 1000 nM; for `CNCC(O)COc1cccc(-c2nc(-c3cncnc3)cc(N(CCOC)CCOC)n2)c1` (centres unmarked) [Compound 43-1] it is 100 to 1000 nM. As for `CNCC(O)COc1cccc(-c2nc(-c3cccc4ncccc34)cc(N(C)CCC#N)n2)c1` (centres unmarked) [Compound 44-1], the half-inhibitory concentration (IC50) lay within 100 to 1000 nM. The same measure for `CNCC(O)COc1cc(Cl)cc(-c2nc(N[C@@H]3CCOC3)c(C)c(C3=CCOCC3)n2)c1` (some centres unmarked) [Compound 47-1]: 100 to 1000 nM; for `CNCC(O)COc1cccc(-c2nc(NC3CCOCC3)cc(-c3cnn(CC(C)C)c3)n2)c1` (centres unmarked) [Compound 51-1]: 100 to 1000 nM. The figure for `CNCC(O)COc1cccc(-c2nc(-c3c(C)noc3C)cc(N(CCOC)CCOC)n2)c1` (centres unmarked) [Compound 52-1] is 100 to 1000 nM; for `CNCC(O)COc1cccc(-c2nc(-c3ccc(C(F)(F)F)nc3)cc(N(C)CCC#N)n2)c1` (centres unmarked) [Compound 54-1] it is 100 to 1000 nM. The same measure for `CNCC(O)COc1cc(Cl)cc(-c2nc(-c3ccncc3)c(C)c(N(C)C3CCOCC3)n2)c1` (centres unmarked) [Compound 58-1]: 100 to 1000 nM; for `CNCC(O)COc1cccc(-c2nc(-c3ccc(OC)c(OC)c3)cc(N(C)C3CCOCC3)n2)c1` (centres unmarked) [Compound 61-1]: 1000 to 3000 nM; for `CNCC(O)COc1cc(Cl)cc(-c2nc(-c3cc(C)nc(C)c3)c(C)c(N(C)C3CCOCC3)n2)c1` (centres unmarked) [Compound 63-1]: 100 to 1000 nM. Consider `CNCC(O)COc1cc(Cl)cc(-c2nc(-c3ccnc(OC)c3)cc(N(CCOC)CCOC)n2)c1` (centres unmarked) [Compound 65-1], for which the IC50 lay within 100 to 1000 nM. Turning to `CNCC(O)COc1cccc(-c2nc(NCCCN3CCCC3=O)cc(-c3ccc4c(c3)OCCO4)n2)c1` (centres unmarked) [Compound 66-1], the IC50 fell in the range of 100 to 1000 nM. Turning to `CNCC(O)COc1cccc(-c2nc(-c3ccc(C(F)(F)F)nc3)cc(N(CCOC)CCOC)n2)c1` (centres unmarked) [Compound 67-1], the IC50 was in the range of 100 to 1000 nM. Take `CNCC(O)COc1cccc(-c2nc(NCCCN3CCCC3=O)cc(-c3ccc(OC)c(OC)c3)n2)c1` (centres unmarked) [Compound 68-1]: the IC50 is 100 to 1000 nM. Regarding `CNCC(O)COc1cc(Cl)cc(-c2nc(-c3cn4ccccc4n3)c(C)c(N(C)C3CCOCC3)n2)c1` (centres unmarked) [Compound 69-1], the IC50 was 100 to 1000 nM. The same measure for `CNCC(O)COc1cccc(-c2nc(-c3ccc(S(C)(=O)=O)cc3)cc(N(CCOC)CCOC)n2)c1` (centres unmarked) [Compound 72-1]: 100 to 1000 nM; for `CNCC(O)COc1cccc(-c2nc(NCCCN3CCCC3=O)cc(-c3ccc(S(C)(=O)=O)cc3)n2)c1` (centres unmarked) [Compound 73-1]: 100 to 1000 nM.

On to `CNCC(O)COc1cc(Cl)cc(-c2nc(-c3ccc4c(c3)OCCO4)cc(N(CCOC)CCOC)n2)c1` (centres unmarked) [Compound 74-1], for which the IC50 fell in the range of 100 to 1000 nM. Regarding `CNCC(O)COc1cc(Cl)cc(-c2nc(-c3ccc(OC)c(OC)c3)cc(N(CCOC)CCOC)n2)c1` (centres unmarked) [Compound 75-1], the IC50 was 100 to 1000 nM.
